Measured values from patent publication US20220274997A1, “PIM KINASE INHIBITOR COMPOSITIONS AND USES THEREOF” (Snap Bio, Inc., priority 2019, published 2022).

Assays:
[1] = molecular target: T1, PIM1 (Homo sapiens, UniProt P11309); test: LANCE Ultra kinase assay, PIM1; assay type: biochemical
T1 construct: purchased ProQinase, Freiburg, Germany 0186-0000-1
Source text: (§1) The second assay used was Perkin Elmer's LANCE® Ultra kinase assay which uses a ULight™-labeled peptide substrate and an appropriate Europium-labeled anti-phospho antibody. When the substrate becomes phosphorylated by a kinase of interest, the phosphorylated site on the substrate is recognized by the Europium-labeled anti-phospho antibody. […] The intensity of light emission is proportional to the level of ULight peptide phosphorylation. A kinase inhibitor reduces the FRET signal, thus providing an accurate and sensitive measure of inhibition potency.
(§2) The assay was performed in 384-well plates in two steps: PIM kinases were mixed with the ULight-substrate (CREBtide) in buffer and incubated for 10 min. Subsequently, ATP and molecules of the present disclosure were added in a kinase buffer at the appropriate concentration and the reactions were incubated for 1 hour, at room temperature in the dark. • After 1 h EDTA was added to stop the kinase reaction, Eu-W1024-labeled anti-phosphoserine-CREB (Ser133) Antibody (anti-phosphoCREBtide specific antibody) was added to the reaction in LANCE Detection buffer. The mixture was allowed to incubate for 30 min to allow binding of the antibody to the phosphorylated site before the plate was read using a Tecan microplate reader
(§3) Kinase Assay Buffer—50 mM HEPES pH7.0.1 mM EGTA, 10 mM MgCl2, 0.01% BRU-35.
(§4) The inhibitory activity of each compound against PIM kinases was measured with the LANCE® Ultra Kinase Assays by ChemDiv, Inc. (San Diego, Calif.).

[2] = tested on: HepG2; test: CellTiter-Glo cancer cell growth inhibition, HepG2; assay type: cell-based, human
Source text: (§5) The CellTiter-Glo® Luminescent Cell Viability Assay is a sensitive homogeneous method to determine the number of viable cells in culture, Detection is based on using the luciferase reaction to measure the amount of ATP from viable cells. The amount of ATP in cells correlates with cell viability. Within minutes after a loss of membrane integrity, cells lose the ability to synthesize ATP, and endogenous ATPases destroy any remaining ATP; thus the levels of ATP fall precipitously. The CellTiter-Glo® Reagent does three things upon addition to cells. It lyses cell membranes to release ATP; it inhibits endogenous ATPases, and it provides luciferin, luciferase and other reagents necessary to measure ATP using a bioluminescent reaction. The unique properties of a proprietary stable luciferase.
(§6) All assays were performed by Reaction Biology Corporation (Malvern, Pa.) or ChemDiv, Inc. (San Diego, Calif.). All cell lines were purchased from American Type Culture Collection (ATCC, Manassas, Va.), except Huh 7 (RIKEN, Toyo, Japan) and HepaRG (Life Technologies, Carlsbad, Calif.).
(§7) Stock solutions ([…]) were diluted with cell culture media to produce 500× serial dilutions and […] of final compound dilutions were added to cells in assay plates to screen a series of 10 doses starting at […]. Final DMSO concentration was 0.2%. Assay plates are centrifuged at 100 rpm, 1 minute and kept at 37° C., 5% CO2, humidified atmosphere. […] Luminescence intensity was measured for each well using the Tecan M 1000 microplate reader after 5 min of incubation with CellTiter-Glo Reagent. The number of viable cells in culture was determined based on quantitation of the ATP present in each culture well. […] The EC50 curves were plotted and […] values were calculated using the GraphPad Prism 4 program based on a sigmoidal dose-response equation.

[3] = tested on: Huh7; test: CellTiter-Glo cancer cell growth inhibition, Huh7; assay type: cell-based
Source text: as §5, §6, §7

[4] = tested on: A673; test: CellTiter-Glo cancer cell growth inhibition, A673; assay type: cell-based
Source text: as §5, §6, §7

[5] = molecular target: T2, PIM3 (Homo sapiens, UniProt Q86V86); test: LANCE Ultra kinase assay, PIM3; assay type: biochemical; details: for IC50: LANCE assay; for Selectivity among PIM1-3 (EC50 plots, FIGS. 2A, 2B): LANCE Ultra assay
T2 construct: purchased SignalChem, Richmond, Canada P37-10BG
Source text: as §1, §2, §3, §4

[6] = tested on: HepaRG; test: CellTiter-Glo cancer cell growth inhibition, HepaRG; assay type: cell-based; details: Homo sapiens, 72 h
Source text: as §5, §6, §7

[7] = molecular target: T3, PIM2 (Homo sapiens, UniProt Q9P1W9); test: LANCE Ultra kinase assay, PIM2; assay type: biochemical
T3 construct: purchased ProQinase, Freiburg, Germany 0223-0000-1
Source text: as §1, §2, §3, §4

[8] = tested on: Hepa1-6 mouse liver cancer cells; test: Hepa1-6 liver cancer xenograft mice; assay type: in vivo
Description: Hepa1-6 mouse liver cancer cells are suspended in Hank's balanced salt solution (HBSS)(2×10^7 cells/mL), and the suspension (100 μL) was subcutaneously injected into the back flank of six female CD57 immunocompetent mice. After growing for 21 days, the tumors were resected, cut into small pieces, and inserted under the skin on each back flank of twelve female CD57 mice (24 tumors total). Mice were maintained for 15 days following tumor insertion to establish robust and consistent tumor growth. The mice were randomly split into six groups of two mice each (two tumors per mouse). Alter establishment of the Hepa1-6 xenografts in CD57 mice, tumor dimensions were measured every 2 days using micrometer calipers. Four groups were treated with compound 49 (PO: 25 mg/kg and 50 mg/k; IP: 10 mg/kg and 25 mg/kg) by both oral (PO, gavage) and intraperitoneal (IP) administration once per day (q.d.) and two control groups were administered vehicle only through the same routes for 10 consecutive days. Mice are weighed daily, starting from the date of Hepa1-6 tumor insertion (day 0). At 25 days after subcutaneous inoculation with Hepa1-6 tumors, mice were euthanized via carbon dioxide asphyxiation and all tumors were excised immediately following death, weighed and measured, and then snap-frozen in liquid nitrogen. Tumor volume (TV) was calculated by the following formula: TV=0.5ab^2, where a is tumor length in mm, and b is tumor width in mm. […] Body weight of mice in all groups was maintained within 10% of day 0 baseline.

[9] = growth inhibition, 72 hours, CellTiter-Glo

T1 sequence (P11309 whole entry): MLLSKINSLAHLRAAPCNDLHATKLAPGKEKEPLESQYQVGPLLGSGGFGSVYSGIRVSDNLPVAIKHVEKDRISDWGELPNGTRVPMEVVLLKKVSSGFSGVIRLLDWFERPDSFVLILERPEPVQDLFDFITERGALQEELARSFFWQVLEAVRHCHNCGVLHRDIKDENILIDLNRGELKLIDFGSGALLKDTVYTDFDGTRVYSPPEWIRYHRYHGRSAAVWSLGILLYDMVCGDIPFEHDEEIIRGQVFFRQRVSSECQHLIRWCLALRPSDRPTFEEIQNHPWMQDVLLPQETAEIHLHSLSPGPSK
T3 sequence (Q9P1W9 whole entry): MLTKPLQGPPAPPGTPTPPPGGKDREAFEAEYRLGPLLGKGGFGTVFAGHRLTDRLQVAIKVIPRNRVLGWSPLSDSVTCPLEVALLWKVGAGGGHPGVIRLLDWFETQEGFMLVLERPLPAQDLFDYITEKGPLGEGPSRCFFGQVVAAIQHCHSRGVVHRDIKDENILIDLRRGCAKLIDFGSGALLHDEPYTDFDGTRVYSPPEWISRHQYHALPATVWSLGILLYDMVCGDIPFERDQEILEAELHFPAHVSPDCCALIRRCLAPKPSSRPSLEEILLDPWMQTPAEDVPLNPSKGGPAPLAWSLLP

EC50 ([2]; Homo sapiens, HepG2, 72 h) [nM] | EC50 ([3]; Homo sapiens, Huh-7, 72 h) [nM] | EC50 ([4]; Homo sapiens, A673, 72 h) [nM] | EC50 [6] [nM] | IC50 ([1]; ATP 1 mM) [nM] | IC50 ([5]; ATP 1 mM) [nM] | IC50 ([7]; ATP 1 mM) [nM] | SMILES | IC50 ([1]; ATP 0.1 mM) [nM] | IC50 ([5]; ATP 0.1 mM) [nM] | IC50 ([7]; ATP 0.1 mM) [nM] | also measured
570 | 240 | 37 | 250 | 2 | 4.9 | 480 | O=C1NC(=O)c2c1c1c3ccc(O)cc3[nH]c1c1c2c2ccc(O)cc2n1CCN1CCOCC1 [Compound 32, 2,10-dihydroxy-12-(2-morpholinoethyl)-12,13-dihydro-5H-indolo[2,3-a]pyrrolo[3,4-c]carbazole-5,7(6H)-dione] | 0.81 | 1.2 | 36 | Selectivity among PIM1-3 (EC50 plots, FIGS. 2A, 2B) [5]: PIM1 and PIM3 selectivity
– | 100 | 5 | – | 0.16 | 1.9 | 18 | O=C1NC(=O)c2c1c1c3ccc(O)cc3[nH]c1c1c2c2ccncc2n1CCN1CCOCC1 [Compound 42] | – | – | – | –
4300 | 4400 | 30000 | 2300 | – | – | – | CNC(=O)c1cc(Oc2ccc(NC(=O)Nc3ccc(Cl)c(C(F)(F)F)c3)c(F)c2)ccn1 [Regorafenib, reference compound] | – | – | – | –
– | – | – | – | – | – | – | O=C1NC(=O)c2c1c1c3cc(F)ccc3[nH]c1c1c2c2cc(F)ccc2n1CCN1CCCCC1 [Compound 51, 3,9-difluoro-12-(2-piperidin-1-ylethyl)-12,13-dihydro-5H-indolo[2,3-a]pyrrolo[3,4-c]carbazole-5,7(6H)-dione] | 3 | 0.8 | > 1000 | –
2300 | 2600 | 18000 | 1400 | – | – | – | CNC(=O)c1cc(Oc2ccc(NC(=O)Nc3ccc(Cl)c(C(F)(F)F)c3)cc2)ccn1 [Sorafenib, reference compound] | – | – | – | –
54 | 77 | 2.2 | 16 | 0.93 | 5 | 180 | O=C1NC(=O)c2c1c1c3cc(F)c(O)cc3[nH]c1c1c2c2cc(F)c(O)cc2n1CCN1CCOCC1 [Compound 37, 3,9-difluoro-2,10-dihydroxy-12-(2-morpholinoethyl)-12,13-dihydro-5H-indolo[2,3-a]pyrrolo[3,4-c]carbazole-5,7(6H)-dione] | 0.7 | 1.1 | 13 | –
– | – | – | – | – | – | – | C[C@@H]1CCC[C@H](C)N1CCn1c2ccc(F)cc2c2c3c(c4c5cc(F)ccc5[nH]c4c21)C(=O)NC3=O [Compound 53, 12-{2-[(2R,6S)-2,6-dimethylpiperidin-1-yl]ethyl}-3,9-difluoro-12,13-dihydro-5H-indolo[2,3-a]pyrrolo[3,4-c]carbazole-5,7(6H)-dione] | 3 | 2.4 | > 1000 | Selectivity among PIM1-3 (EC50 plots, FIGS. 2A, 2B) [5]: PIM1 and PIM3 selectivity
– | 100 | 4.4 | – | 0.42 | 1.6 | 674 | O=C1NC(=O)c2c1c1c3ccncc3[nH]c1c1c2c2ccc(O)cc2n1CCN1CCOCC1 [Compound 41] | – | – | – | –
– | – | – | – | – | – | – | N[C@@H]1CCCN(c2c(/C=C3\SC(=O)NC3=O)cccc2-c2ccccc2)C1 [AZD-1208, reference compound] | – | – | – | EC50 [2, 9]: 28000 nM; EC50 [3, 9]: 13500 nM; EC50 [4, 9]: 19700 nM

SMILES | EC50 ([2]; Homo sapiens, HepG2, 72 h) [nM] | EC50 ([3]; Homo sapiens, Huh-7, 72 h) [nM] | EC50 ([4]; Homo sapiens, A673, 72 h) [nM] | EC50 [6] [nM] | IC50 ([1]; ATP 1 mM) [nM] | IC50 ([5]; ATP 1 mM) [nM] | IC50 ([7]; ATP 1 mM) [nM] | IC50 ([1]; ATP 0.1 mM) [nM] | IC50 ([5]; ATP 0.1 mM) [nM] | IC50 ([7]; ATP 0.1 mM) [nM] | also measured
O=C1NC(=O)c2c1c1c3ccc(O)cc3[nH]c1c1c2c2ccc(O)cc2n1CCN1CCCCC1 [Compound 56, 2,10-dihydroxy-12-(2-piperidinoethyl)-12,13-dihydro-5H-indolo[2,3-a]pyrrolo[3,4-c]carbazole-5,7(6H)-dione] | 315 | 484 | 35 | 77 | – | – | – | 0.7 | 1 | 50 | –
C[C@@H]1CCC[C@H](C)N1CCn1c2cc(O)c(F)cc2c2c3c(c4c5cc(F)c(O)cc5[nH]c4c21)C(=O)NC3=O [Compound 59, 12-{2-[(2R,6S)-2,6-dimethylpiperidin-1-yl]ethyl}-3,9-difluoro-2,10-dihydroxy-12,13-dihydro-5H-indolo[2,3-a]pyrrolo[3,4-c]carbazole-5,7(6H)-dione] | 266 | 925 | 3.1 | 20 | – | – | – | 0.1 | 3 | 37 | –
O=C1NC(=O)c2c1c1c3cc(F)ccc3[nH]c1c1c2c2cc(F)ccc2n1CCN1CCOCC1 [Compound 49, 3,9-difluoro-12-(2-morpholin-4-ylethyl)-12,13-dihydro-5H-indolo[2,3-a]pyrrolo[3,4-c]carbazole-5,7(6H)-dione] | 40 | 100 | 57 | > 10000 | – | – | – | 4 | 0.7 | > 1000 | Reduction of tumor size relative to control tumors ([8]; IP injection 25 mg/kg q.d., 10 days, CD57 mice): up to 50%; Tumor reduction ([8]; PO dosing (25 mg/kg and 50 mg/kg) q.d., CD57 mice): No tumor reduction was observed; Body weight change vs day 0 baseline ([8]; all groups (PO 25, 50 mg/kg; IP 10, 25 mg/kg)): ≤ 10%; Tumor reduction ([8]; lower doses (IP 10 mg/kg) q.d., CD57 mice): No tumor reduction was observed
